From ChEMBL document CHEMBL2440076, “New triarylpyrazoles as broad-spectrum anticancer agents: design, synthesis, and biological evaluation” (Eur J Med Chem, 2013)
pIC50: −log10 of the molar value.

How the values were obtained:
MCF7 = test: Growth inhibition of human MCF7 cells assessed as cell growth at 10 uM after 48 hrs by sulforhodamine B assay; type: functional; settings: MCF7, 48 h, read-out: Activity
KM12 = test: Growth inhibition of human KM12 cells after 48 hrs by sulforhodamine B assay; type: functional, cell-based; settings: KM12, 48 h
NCI-H322M [1] = test: Growth inhibition of human NCI-H322M cells assessed as cell growth at 10 uM after 48 hrs by sulforhodamine B assay; type: functional; settings: read-out: Activity
OVCAR-3 = test: Growth inhibition of human OVCAR3 cells assessed as cell growth at 10 uM after 48 hrs by sulforhodamine B assay; type: functional; settings: OVCAR-3, 48 h, read-out: Activity
ACHN = test: Growth inhibition of human ACHN cells after 48 hrs by sulforhodamine B assay; type: functional
MDA-MB-468 = test: Growth inhibition of human MDA-MB-468 cells after 48 hrs by sulforhodamine B assay; type: functional, cell-based; settings: MDA-MB-468, 48 h
HT-29 = test: Growth inhibition of human HT-29 cells assessed as cell growth at 10 uM after 48 hrs by sulforhodamine B assay; type: functional; settings: HT-29, 48 h, read-out: Activity
UACC-257 = test: Growth inhibition of human UACC257 cells after 48 hrs by sulforhodamine B assay; type: functional; settings: UACC-257, 48 h
HCT-116 = test: Growth inhibition of human HCT116 cells after 48 hrs by sulforhodamine B assay; type: functional; settings: HCT-116, 48 h
MDA-MB-231 = test: Growth inhibition of human MDA-MB-231 cells assessed as cell growth at 10 uM after 48 hrs by sulforhodamine B assay; type: functional; settings: MDA-MB-231, 48 h, read-out: Activity
OVCAR-8 [2] = test: Growth inhibition of human OVCAR8 cells after 48 hrs by sulforhodamine B assay; type: functional; settings: OVCAR-8, 48 h
[3] = Growth inhibition of human NCI-ADR-RES cells assessed as cell growth at 10 uM after 48 hrs by sulforhodamine B assay; type: functional; settings: read-out: Activity
DU-145 [4] = test: Growth inhibition of human DU145 cells assessed as cell growth at 10 uM after 48 hrs by sulforhodamine B assay; type: functional; settings: DU-145, 48 h, read-out: Activity
786-0 = test: Growth inhibition of human 786-0 cells after 48 hrs by sulforhodamine B assay; type: functional; settings: 786-0, 48 h
SF-539 [5] = test: Growth inhibition of human SF539 cells assessed as cell growth at 10 uM after 48 hrs by sulforhodamine B assay; type: functional; settings: SF-539, 48 h, read-out: Activity
SK-MEL-28 = test: Growth inhibition of human SK-MEL-28 cells assessed as cell growth at 10 uM after 48 hrs by sulforhodamine B assay; type: functional; settings: SK-MEL-28, 48 h, read-out: Activity
OVCAR-8 [6] = test: Growth inhibition of human OVCAR8 cells assessed as cell growth at 10 uM after 48 hrs by sulforhodamine B assay; type: functional; settings: OVCAR-8, 48 h, read-out: Activity
UACC-62 = test: Growth inhibition of human UACC62 cells after 48 hrs by sulforhodamine B assay; type: functional; settings: UACC-62, 48 h
SF-539 [7] = test: Growth inhibition of human SF539 cells after 48 hrs by sulforhodamine B assay; type: functional; settings: SF-539, 48 h
A549 = test: Growth inhibition of human A549/ATCC cells after 48 hrs by sulforhodamine B assay; type: functional; settings: A549, 48 h
HOP-92 = test: Growth inhibition of human HOP92 cells assessed as cell growth at 10 uM after 48 hrs by sulforhodamine B assay; type: functional; settings: HOP-92, 48 h, read-out: Activity
SR = test: Growth inhibition of human SR cells after 48 hrs by sulforhodamine B assay; type: functional
UO-31 = test: Growth inhibition of human UO31 cells after 48 hrs by sulforhodamine B assay; type: functional; settings: UO-31, 48 h
OVCAR-5 = test: Growth inhibition of human OVCAR5 cells assessed as cell growth at 10 uM after 48 hrs by sulforhodamine B assay; type: functional; settings: OVCAR-5, 48 h, read-out: Activity
SNB-19 = test: Growth inhibition of human SNB19 cells assessed as cell growth at 10 uM after 48 hrs by sulforhodamine B assay; type: functional; settings: SNB-19, 48 h, read-out: Activity
DU-145 [8] = test: Growth inhibition of human DU145 cells after 48 hrs by sulforhodamine B assay; type: functional; settings: DU-145, 48 h
K562 = test: Growth inhibition of human K562 cells assessed as cell growth at 10 uM after 48 hrs by sulforhodamine B assay; type: functional; settings: K562, 48 h, read-out: Activity
SW-620 = test: Growth inhibition of human SW620 cells after 48 hrs by sulforhodamine B assay; type: functional; settings: SW-620, 48 h
COLO 205 = test: Growth inhibition of human COLO205 cells assessed as cell growth at 10 uM after 48 hrs by sulforhodamine B assay; type: functional; settings: COLO 205, 48 h, read-out: Activity
NCI-H322M [9] = test: Growth inhibition of human NCI-H322M cells after 48 hrs by sulforhodamine B assay; type: functional
U-251 = test: Growth inhibition of human U251 cells after 48 hrs by sulforhodamine B assay; type: functional; settings: U-251, 48 h
HCT-15 = test: Growth inhibition of human HCT15 cells after 48 hrs by sulforhodamine B assay; type: functional; settings: HCT-15, 48 h
[10] = Growth inhibition of human HCC2998 cells after 48 hrs by sulforhodamine B assay; type: functional; settings: HCC 2998, 48 h
M14 = test: Growth inhibition of human M14 cells assessed as cell growth at 10 uM after 48 hrs by sulforhodamine B assay; type: functional; settings: M14, 48 h, read-out: Activity
[11] = read-out: LC50 (the source's name)

Work on O=C(Nc1cccc(-n2cc(-c3ccncc3)c(-c3ccc(Cl)c(O)c3)n2)c1)Nc1cccc(C(F)(F)F)c1 yielded a growth at 10 µM (MCF7) of 10.3%, a GI50 (KM12) of 1.33 µM and a TGI (KM12) greater than 32.5 µM. For the same compound, the CC50 (KM12; [11]) was greater than 32.5 µM, the growth at 10 µM (NCI-H322M [1]) was 48.2% and the growth at 10 µM (OVCAR-3) was 0.81%. For the same compound, the GI50 (ACHN) was 1.29 µM, the TGI (ACHN) was greater than 32.5 µM and the CC50 (ACHN; [11]) was greater than 32.5 µM. For the same compound, the GI50 (MDA-MB-468) was 0.98 µM, the pIC50 (MDA-MB-468) was 6.01 and the TGI (MDA-MB-468) was 7.83 µM. The CC50 (MDA-MB-468; [11]) was greater than 32.5 µM, the growth at 10 µM (HT-29) was 77.8% and the GI50 (UACC-257) was 4.34 µM. For the same compound, the TGI (UACC-257) was 19.1 µM, the CC50 (UACC-257; [11]) was greater than 32.5 µM and the GI50 (HCT-116) was 1.39 µM. It also gave a TGI (HCT-116) of 8.26 µM, a CC50 (HCT-116; [11]) greater than 32.5 µM and a growth at 10 µM (MDA-MB-231) of 21.3%. The GI50 (OVCAR-8 [2]) was 1.57 µM, the TGI (OVCAR-8 [2]) was greater than 32.5 µM and the CC50 (OVCAR-8 [2]; [11]) was greater than 32.5 µM. The growth at 10 µM [3] was 24.9%, the growth at 10 µM (DU-145 [4]) was 23.1% and the GI50 (786-0) was 4.69 µM. It also gave a TGI (786-0) greater than 32.5 µM, a CC50 (786-0; [11]) greater than 32.5 µM and a growth at 10 µM (SF-539 [5]) of 38.5%. It also gave a growth at 10 µM (SK-MEL-28) of 29.4%, a growth at 10 µM (OVCAR-8 [6]) of 10.6% and a GI50 (UACC-62) of 1.65 µM. For the same compound, the LC50 (50% lethal concentration) (UACC-62) was 21.9 µM, the TGI (UACC-62) was 6.91 µM and the GI50 (SF-539 [7]) was 3.54 µM. It also gave an LC50 (concentration killing 50% of cells) (SF-539 [7]) greater than 32.5 µM, a TGI (SF-539 [7]) of 11.6 µM and a GI50 (A549) of 1.37 µM. It also gave an LC50 (concentration killing 50% of starting cells) (A549) greater than 32.5 µM, a TGI (A549) greater than 32.5 µM and a growth at 10 µM (HOP-92) of -17.7%. The GI50 (SR) was 1.82 µM, the TGI (SR) was 20 µM and the CC50 (SR; [11]) was greater than 32.5 µM. It also gave a GI50 (UO-31) of 1.86 µM, a TGI (UO-31) greater than 32.5 µM and a CC50 (UO-31; [11]) greater than 32.5 µM. For the same compound, the growth at 10 µM (OVCAR-5) was 62.4%, the growth at 10 µM (SNB-19) was 32.5% and the GI50 (DU-145 [8]) was 1.76 µM. For the same compound, the LC50 (DU-145 [8]) was greater than 32.5 µM, the TGI (DU-145 [8]) was greater than 32.5 µM and the growth at 10 µM (K562) was 13.4%. It also gave a GI50 (SW-620) of 3.83 µM, a TGI (SW-620) greater than 32.5 µM and a CC50 (SW-620; [11]) greater than 32.5 µM. For the same compound, the growth at 10 µM (COLO 205) was 94.2%, the GI50 (NCI-H322M [9]) was 6.41 µM and the TGI (NCI-H322M [9]) was greater than 32.5 µM. The CC50 (NCI-H322M [9]; [11]) was greater than 32.5 µM, the GI50 (U-251) was 1.59 µM and the LC50 (concentration killing 50% of cells) (U-251) was greater than 32.5 µM. For the same compound, the TGI (U-251) was 7.65 µM, the GI50 (HCT-15) was 1.51 µM and the LC50 (HCT-15) was greater than 32.5 µM. For the same compound, the TGI (HCT-15) was greater than 32.5 µM, the GI50 [10] was 7.26 µM and the TGI [10] was greater than 32.5 µM. The CC50 [10, 11] was greater than 32.5 µM and the growth at 10 µM (M14) was 16.6%.
